Reference: patent US20120053165A1, “Novel Phenyl Imidazoles and Phenyl Triazoles As Gamma-Secretase Modulators” (Pfizer Inc., priority 2009, published 2012)
Where a name gives a salt, the structure may show the parent alone.

System: production of amyloid beta protein Aβ(1-42) in human WT-APP overexpressing CHO cells
Conditions: Homo sapiens, CHO, read-out: Aβ 42 IC50
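Further: Aβ(1-42) released into conditioned medium captured by ELISA after roughly 24 h compound exposure, vehicle and inhibitor controls defining maximal and minimal inhibition.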
Procedure: Cell-Based γ-Secretase Assay with ELISA Readout
The ability of compounds to modulate production of amyloid beta protein Aβ(1-42) was determined using human WT-APP overexpressing CHO cells. Cells were plated at 22,000 cells/100 μL well in 96 well tissue culture treated, clear plates (Falcon) in DMEM/F12 based medium and incubated for 24 hours at 37° C. […] Compounds were added in fresh medium to achieve 1% final DMSO. Appropriate vehicle and inhibitor controls were added to obtain maximum and minimum inhibition values for the assay before the plates were incubated for about 24 hours at 37° C.
Coating of ELISA assay plates was initiated by addition of 50 μL/well of an in house Aβ(1-42) specific antibody at (4 μg/mL) in 0.1 M NaHCO3 (pH 9.0) into black 384-well Maxisorp® plates (Nunc) and incubated overnight at 4° C. […] Ambient temperature incubation was allowed to proceed for a minimum of two hours before washing 2×100 μL with Wash Buffer (Dulbecco's PBS, 0.05% Tween 20). Assay Buffer (Dulbecco's PBS, 1.0% BSA (Sigma A7030), 0.05% Tween 20) 20 μL/well is then added.
After incubation overnight at 37° C., 5% CO2, 40 μL (in duplicate) of experimental conditioned media are transferred into wells of the blocked ELISA plates containing the capture antibody, followed by overnight incubation at 4° C.
After overnight incubation of the ELISA assay plates at 4° C., unbound Aβ peptides were removed thorough (4×100 μL) washes with Wash Buffer.

Going from `COc1cc(C(=O)NCCc2c(C)[nH]c3c(Cl)cc(Cl)cc23)ccc1-n1cnc(C)c1` [Example 51, N-[2-(5,7-dichloro-2-methyl-1H-indol-3-yl)ethyl]-3-methoxy-4-(4-methyl-1H-imidazol-1-yl)benzamide] to `COc1cc(C(=O)NCCc2ccc(C)c(C)c2)ccc1-n1cnc(C)c1` [Example 64, N-[2-(3,4-dimethyl-phenyl)ethyl]-3-methoxy-4-(4-methyl-1H-imidazol-1-yl)benzamide], the IC50 rises from 189 nM to 395 nM (2.1-fold). The first is the more potent here.

Same assay, conditions: Homo sapiens, CHO, read-out: Aβ 42 IC50, Geometric mean of 2-8 determinations; human WT-APP overexpressing CHO cells

`COc1cc(C(=O)NC(c2ccc(F)cc2)c2cccs2)ccc1-n1cnc(C)c1` (centres unmarked) [Example 41, N-[(4-fluoro-phenyl)(2-thienyl)methyl]-3-methoxy-4-(4-methyl-1H-imidazol-1-yl)benzamide, trifluoroacetic acid salt] and `COc1cc(C(=O)NCc2ccc(F)c(Cl)c2)ccc1-n1cnc(C)c1` [Example 54, N-(3-chloro-4-fluorobenzyl)-3-methoxy-4-(4-methyl-1H-imidazol-1-yl)benzamide] are within 1.5-fold of each other in IC50: 328 nM for the first, 326 nM for the second.

First: COc1cc(C(=O)N[C@@H]2COC[C@@H]2Oc2ccc(Br)cc2)ccc1-n1cnc(C)c1 [Example 48, N-[(3R,4R)-4-(4-bromophenoxy)-tetrahydro-furan-3-yl]-3-methoxy-4-(4-methylimidazol-1-yl)benzamide]
Second: COc1cc(C(=O)NCc2cccc(OC(F)(F)F)c2)ccc1-n1cnc(C)c1 [Example 55, 3-methoxy-4-(4-methyl-1H-imidazol-1-yl)-N-[3-(trifluoromethoxy)benzyl]benzamide]
The IC50 of the first is 5.2-fold higher: 1740 nM for the first, 332 nM for the second.

Compared with `COc1cc(C(=O)NCc2csc(-c3ccc(C(F)(F)F)cc3)n2)ccc1-n1cnc(C)c1` [Example 50, 3-methoxy-4-(4-methyl-1H-imidazol-1-yl)-N-({2-[4-(trifluoromethyl)phenyl]-1,3-thiazol-4-yl}methyl)benzamide], `COc1cc(C(=O)NCCCCc2ccccc2)ccc1-n1cnc(C)c1` [Example 61, 3-methoxy-4-(4-methyl-1H-imidazol-1-yl)-N-(4-phenyl-butyl)benzamide] is 2.3-fold higher in IC50: 152 nM for the first, 356 nM for the second.

Same assay, conditions: Homo sapiens, CHO, read-out: Aβ 42 IC50, Single IC50 determination; human WT-APP overexpressing CHO cells

Work on `COc1cc(C(=O)NCC2C3CC4CC(C3)CC2C4)ccc1-n1cnc(C)c1` (centres unmarked) [Example 40, N-(adamantan-2-ylmethyl)-3-methoxy-4-(4-methyl-1H-imidazol-1-yl)benzamide] yielded an IC50 of 185 nM.

Same assay, conditions: read-out: Aβ 42 IC50; Geometric mean of 2-8 determinations; human WT-APP overexpressing CHO cells

Going from `COc1cc(C(=O)NCC(CO)c2cccc(C(F)(F)F)c2)ccc1-n1cnc(C)c1` (centres unmarked) [Example 35, N-{3-hydroxy-2-[3-(trifluoro-methyl)phenyl]propyl}-3-methoxy-4-(4-methyl-1H-imidazol-1-yl) benzamide] to `COc1cc(C(=O)NCc2cc(F)cc(C(F)(F)F)c2)ccc1-n1cnc(C)c1` [Example 62, N-[3-fluoro-5-(trifluoromethyl)benzyl]-3-methoxy-4-(4-methyl-1H-imidazol-1-yl) benzamide], the IC50 falls from 910 nM to 369 nM (2.5-fold).

Compared with `COc1cc(C(=O)NCC2(c3ccc(Cl)cc3)CCCC2)ccc1-n1cnc(C)c1` [Example 36, N-{[1-(4-chlorophenyl)cyclopentyl]methyl}-3-methoxy-4-(4-methyl-1H-imidazol-1-yl) benzamide], `COc1cccc(C2(CNC(=O)c3ccc(-n4cnc(C)c4)c(OC)c3)CCCC2)c1` [Example 65, 3-methoxy-N-{[1-(3-methoxyphenyl)cyclopentyl]methyl}-4-(4-methyl-1H-imidazol-1-yl) benzamide] is 2-fold higher in IC50: 209 nM for the first, 410 nM for the second.

`COc1cc(C(=O)NCCc2nc3ccc(Cl)cc3o2)ccc1-n1cnc(C)c1` [Example 38, N-[2-(6-chloro-1,3-benzoxazol-2-yl)ethyl]-3-methoxy-4-(4-methyl-1H-imidazol-1-yl) benzamide] and `COc1cc(C(=O)NCc2ccc(Cl)cc2C)ccc1-n1cnc(C)c1` [Example 59, N-(4-chloro-2-methylbenzyl)-3-methoxy-4-(4-methyl-1H-imidazol-1-yl) benzamide] are within 1.5-fold of each other in IC50: 354 nM for the first, 351 nM for the second.

First: COc1cc(C(=O)NCc2cccc(C(=O)c3ccccc3)c2)ccc1-n1cnc(C)c1 [Example 42, N-(3-benzoyl-benzyl)-3-methoxy-4-(4-methyl-1H-imidazol-1-yl) benzamide]
Second: COc1cc(C(=O)NCc2ccc(C(=O)c3ccccc3)cc2)ccc1-n1cnc(C)c1 [Example 43, N-(4-benzoyl-benzyl)-3-methoxy-4-(4-methyl-1H-imidazol-1-yl) benzamide]
The IC50 of the first is 1.8-fold lower: 316 nM for the first, 582 nM for the second. The first is the more potent here.

Compared with `COc1cc(C(=O)NCc2csc(-c3cccs3)n2)ccc1-n1cnc(C)c1` [Example 44, 3-methoxy-4-(4-methyl-1H-imidazol-1-yl)-N-{[2-(2-thienyl)-1,3-thiazol-4-yl]methyl} benzamide], `COc1cc(C(=O)NCc2csc(-c3ccc(Cl)cc3)n2)ccc1-n1cnc(C)c1` [Example 53, N-{[2-(4-chlorophenyl)-1,3-thiazol-4-yl]methyl}-3-methoxy-4-(4-methyl-1H-imidazol-1-yl) benzamide] is 1.9-fold lower in IC50: 575 nM for the first, 306 nM for the second.

Going from `COc1cc(C(=O)NCc2nc(-c3ccc(Cl)cc3)no2)ccc1-n1cnc(C)c1` [Example 45, N-{[3-(4-chlorophenyl)-1,2,4-oxadiazol-5-yl]methyl}-3-methoxy-4-(4-methyl-1H-imidazol-1-yl) benzamide, formic acid salt] to `COc1cc(C(=O)NCc2ccc(-c3ccc(Cl)cc3)s2)ccc1-n1cnc(C)c1` [Example 49, N-{[5-(4-chlorophenyl)-2-thienyl]methyl}-3-methoxy-4-(4-methyl-1H-imidazol-1-yl) benzamide], the IC50 falls from 730 nM to 137 nM (5.3-fold).

Compared with `COc1cc(C(=O)NCC2CCCC2)ccc1-n1cnc(C)c1` [Example 47, N-cyclopentyl-methyl-3-methoxy-4-(4-methyl-imidazol-1-yl)-benzamide], `COc1cccc(C[C@@H]2CCC[C@@H]2NC(=O)c2ccc(-n3cnc(C)c3)c(OC)c2)c1` [Example 63, 3-methoxy-N-[(1S,2S)-2-(3-methoxybenzyl)cyclopentyl]-4-(4-methyl-1H-imidazol-1-yl) benzamide] is 3.1-fold lower in IC50: 1200 nM for the first, 391 nM for the second.

`COc1cc(C(=O)NCCc2c[nH]c3ccc(Br)cc23)ccc1-n1cnc(C)c1` [Example 52, N-[2-(5-bromo-1H-indol-3-yl)ethyl]-3-methoxy-4-(4-methyl-1H-imidazol-1-yl) benzamide] and `COc1cc(C(=O)NCc2ccc(OC(F)(F)F)cc2)ccc1-n1cnc(C)c1` [Example 57, 3-methoxy-4-(4-methyl-1H-imidazol-1-yl)-N-[4-(trifluoro-methoxy)benzyl] benzamide] are within 1.5-fold of each other in IC50: 251 nM for the first, 339 nM for the second.

`COc1cc(C(=O)NC(C)COc2c(C)cccc2C)ccc1-n1cnc(C)c1` (centres unmarked) [Example 56, N-[2-(2,6-dimethyl-phenoxy)-1-methylethyl]-3-methoxy-4-(4-methyl-1H-imidazol-1-yl) benzamide] and `COc1cc(C(=O)NCc2cccc(Oc3ccccc3)c2)ccc1-n1cnc(C)c1` [Example 60, 3-methoxy-4-(4-methyl-1H-imidazol-1-yl)-N-(3-phenoxybenzyl) benzamide] are within 1.5-fold of each other in IC50: 337 nM for the first, 353 nM for the second.

Work on `COc1cc(C(=O)NCc2sc3c(F)ccc(F)c3c2Cl)ccc1-n1cnc(C)c1` [Example 58, N-[(3-chloro-4,7-difluoro-1-benzothien-2-yl)methyl]-3-methoxy-4-(4-methyl-1H-imidazol-1-yl) benzamide] yielded an IC50 of 346 nM.

Same assay, conditions: read-out: Aβ 42 IC50; Single IC50 determination; human WT-APP overexpressing CHO cells

`COc1cc(C(=O)NCC2(c3ccc(Br)cc3)CC2)ccc1-n1cnc(C)c1` [Example 39, N-{[1-(4-bromophenyl)cyclopropyl]methyl}-3-methoxy-4-(4-methyl-1H-imidazol-1-yl) benzamide] gave an IC50 of 248 nM.
